Measured values: PubChem BioAssay (NCI)
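Compound exposure: 48 hours, 5 concentrations, 96-well plates. The concentration for 50% growth inhibition is given as GI50. TGI marks complete inhibition of growth.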

How the values were obtained:
Assay in all cases: inhibition of tumour cell growth, NCI panel, 48 h
UACC-62 melanoma = test system: UACC-62 melanoma
MALME-3M melanoma = test system: MALME-3M melanoma
RXF 393 renal = test system: RXF 393 renal
SK-MEL-5 melanoma = test system: SK-MEL-5 melanoma
SK-MEL-2 melanoma = test system: SK-MEL-2 melanoma
NCI/ADR-RES ovarian = test system: NCI/ADR-RES ovarian
OVCAR-3 ovarian = test system: OVCAR-3 ovarian
SNB-19 CNS = test system: SNB-19 CNS
M14 melanoma = test system: M14 melanoma
NCI-H226 lung = test system: NCI-H226 lung

Row | Compound | TGI (UACC-62 melanoma) [µM] | TGI (MALME-3M melanoma) [µM] | TGI (RXF 393 renal) [µM] | TGI (SK-MEL-5 melanoma) [µM] | TGI (SK-MEL-2 melanoma) [µM] | TGI (NCI/ADR-RES ovarian) [µM] | TGI (OVCAR-3 ovarian) [µM] | TGI (SNB-19 CNS) [µM] | TGI (M14 melanoma) [µM] | TGI (NCI-H226 lung) [µM] | GI50 (MALME-3M melanoma) [µM] | GI50 (RXF 393 renal) [µM] | GI50 (SK-MEL-5 melanoma) [µM] | GI50 (OVCAR-3 ovarian) [µM] | GI50 (NCI-H226 lung) [µM]
1 | O=C(O)C(=O)/C=C(\O)c1ccc(Br)cc1 | > 100 | > 100 | > 100 | > 100 | > 100 | > 100 | > 100 | > 100 | > 100 | > 100 | – | – | – | – | –
2 | Cc1nc2ccccc2c(/C=C/c2ccc(Cl)cc2)c1C(=O)/C=C/c1ccccc1 | – | 3.01 | 2.98 | 2.96 | – | – | 2.77 | – | – | 3.22 | 1.63 | 1.6 | 1.61 | 1.36 | 1.58
3 | CCOc1ccc2c(c1)c(=O)c1c(NCCN(CC)CC)ccc3nnn2c31 | > 100 | 33.8 | 25.5 | 31.1 | > 100 | > 54.2 | > 100 | > 100 | > 54.8 | > 100 | – | – | – | – | –
4 | [N-]=[N+]=C(C(=O)N1CCCC1=O)S(=O)(=O)c1ccccc1 | > 100 | > 100 | > 100 | > 100 | > 100 | > 100 | > 100 | > 100 | > 100 | – | – | – | – | – | –
5 | O=C1C(=Cc2ccc(Cl)c(Cl)c2)C([O-])=C([P+](c2ccccc2)(c2ccccc2)c2ccccc2)C([O-])=C1[P+](c1ccccc1)(c1ccccc1)c1ccccc1 | 5.29 | 4.9 | 3.35 | 5.24 | 6.91 | 19.3 | 3.74 | 6.35 | 6.66 | 7.14 | – | – | – | – | –
6 | COc1ccc(Nc2nc(N)c(C(=O)c3cccs3)s2)cc1 | > 54.2 | 64.8 | 33.8 | 12.8 | > 51.4 | > 100 | > 32.4 | > 64.8 | 34.6 | 19.2 | – | – | – | – | –
7 | CC1=C(C)C(=O)C(C2=CC(=O)C=CC2=O)=C(C2=CC(=O)C=CC2=O)C1=O | > 100 | > 100 | > 100 | 46.2 | > 100 | > 100 | – | > 100 | > 100 | > 100 | – | – | – | – | –
8 | N#CC(C#N)=C1C(=O)NC(N)=C1C#N | > 100 | > 100 | > 100 | > 100 | > 100 | > 100 | – | > 100 | > 100 | > 100 | – | – | – | – | –
9 | OC1C[C@H](c2ccccc2)C2(C(O)c3ccccc3C2O)[C@@H](c2ccccc2)C1 (stereo partly drawn) | > 100 | > 100 | > 100 | > 100 | > 100 | > 100 | > 100 | > 100 | > 100 | > 100 | – | – | – | – | –
10 | [N-]=[N+]=Nc1c([N+](=O)[O-])c(=O)n2c3c(cccc13)CCC2 | 29.9 | 4.27 | – | 30.3 | 31.2 | 45.5 | 32.5 | > 100 | 26.2 | 51.9 | – | – | – | – | –
11 | S=c1[nH]c2ccc(I)cc2c(=S)n1Cc1ccccc1 | – | 33.6 | 9.21 | 13.2 | 18 | 25.5 | 8.07 | 48.6 | 31.6 | > 100 | – | – | – | – | –
12 | CNc1ncnc2c1cnn2Cc1cn(COCC(O)CO)nn1 (stereo not drawn) | > 100 | – | – | > 100 | > 100 | > 100 | > 100 | > 100 | > 100 | > 100 | – | – | – | – | –
13 | CCOC(=O)N1CCC(=C2c3ccc(Cl)cc3CCc3cccnc32)CC1 | 18.9 | 24.7 | 22.7 | 9.22 | 27.4 | 23.6 | 22.5 | – | 29.1 | 40.6 | – | – | – | – | –
14 | NC1CC=C(COC(=O)C(O)(c2ccccc2)C2CC2)CC1 (stereo not drawn) | > 100 | > 100 | > 100 | > 100 | – | > 100 | > 100 | > 100 | > 100 | > 100 | – | – | – | – | –
15 | CCN1CCC(O)(/C=C/c2ccc(C(C)C)cc2)C(C(=O)/C=C/c2ccc(C(C)C)cc2)C1 (stereo not drawn) | 15.7 | 10.5 | 6.59 | 12.7 | 10.5 | 8.44 | 11.7 | 15.5 | > 40.5 | 9.06 | – | – | – | – | –
16 | O=C(CSc1nc2ccccc2c(=O)n1-c1ccccc1)N=Nc1c(O)[nH]c2ccc(F)cc12 | 4.82 | – | 4.09 | 15.4 | 3.59 | 5.48 | 3.91 | 67.5 | 4.57 | – | – | – | – | – | –
17 | CC1(C)N=C(c2ccccn2)C(c2ccccn2)=NC1(C)C | > 100 | > 100 | > 100 | > 100 | > 100 | – | > 100 | > 100 | > 100 | > 100 | – | – | – | – | –
18 | CCCCCCCCCCCCCC(=O)N(CCCCCCCCC)CC(O)C(O)C(OC1OC(CO)C(O)C(O)C1O)C(O)CO (stereo not drawn) | 38.2 | 35.7 | 54.9 | 34.7 | 59 | 37.7 | 53.1 | 44 | 40.8 | 34.3 | – | – | – | – | –
19 | CCOC(=O)C(NC(=O)OC(C)(C)C)C(=O)OCC | > 100 | – | > 100 | > 100 | > 100 | > 100 | – | > 100 | – | – | – | – | – | – | –
20 | NC(N)=NCCCC(NC(=O)OCCCCn1ccc(N)nc1=O)C(=O)O (stereo not drawn) | > 100 | – | > 100 | – | > 100 | > 100 | > 100 | > 100 | > 100 | > 100 | – | – | – | – | –
21 | Brc1ccc2c(-c3csc(-c4c[nH]c5ccccc45)n3)c[nH]c2c1 | 35.9 | 31 | 38.8 | 28.6 | – | 35.9 | 29.1 | 31.7 | 27.3 | 34 | – | – | – | – | –
22 | CCCCNC(=O)/N=C/c1c(O)c2ccccc2oc1=O | > 100 | – | 79.5 | > 100 | 66.1 | – | – | > 100 | > 100 | > 100 | – | – | – | – | –
23 | CC(=O)Nc1ccccc1NC1CC(C)N(c2ccccc2)N1C(C)=O (stereo not drawn) | > 10 | > 10 | > 10 | > 10 | – | – | – | – | > 10 | – | – | – | – | – | –
